In patent US5019576A, “2-substituted N,N'-ditrimethoxybenzoyl piperazines and therapeutic compositions containing them” (Societe de Conseils de Recherches et d'Applications …, priority 1989, dated 1991):

Columns and labels:
[1] = system: platelet aggregation induced by 2.5 nm of PAF; assay: Inhibition of PAF-induced platelet aggregation on platelet rich plasma (Born method); assay type: cell-based, New Zealand rabbits; conditions: Oryctolagus cuniculus; rabbit platelet rich plasma, 2.5 nm PAF
Experimental: 1. --Inhibition of the platelets aggregation on New Zealand Rabbits
The experimentation was conducted on platelets with plasma of New Zealand rabbits.
Blood samples were taken from auricular artery and placed in a citrate buffer (3.8%; pH 7.4); blood was further centrifugated for 15 mn at 1200 rpm.
The tested sample was prepared in DMSO, then poured on platelets rich plasma for 1 mn, then a dose of 2.5 nm of PAF was added.
The determination is made on a Cronolog Coultronics apparatus which determines the transmission percentage corresponding to the maximum height of the peak before the desaggregation.
The percentage of variation of the inhibition with respect to the transmission percentage is calculated (control: pure DMSO).
This method was described in detail in LABORATORY INVESTIGATIONS, Vol. 41, No. 3, p. 275, 1979, JEAN-PIERRE CAZENAVE, Dr. MED., JACQUES BENVENISTE, DR. MED., AND J. FRASER MUSTARD, M. D., "Aggregation of rabbits platelets by platelet-activating factor is independent of the release reaction and the arachidonate pathway and inhibited by membrane-active drugs".

PAF receptors = molecular target: T1, PAF receptors (Oryctolagus cuniculus, UniProt G1TEI7); assay: Binding studies on a rabbit platelet homogenate (3[H]-PAF)
T1 construct: from tissue; host or cells: rabbit platelet homogenate
Excerpt: This activity was evidenced by binding studies on a rabbit platelet homogenate. In this preparation indeed, those derivatives inhibit the specific bond of ^3 [H]--PAF, whereas they are without significative effect on the binding of the appropriate ligands on tissue homogenates rich in benzodiazepinic (central and peripheral), histaminergic (H1 and H2) and adrenergic (α1, α2, β2, β3) receptors, to angiotensine II or to ANF. Their affinity is therefore characteristic of PAF receptors.

T1 sequence (G1TEI7 1-342): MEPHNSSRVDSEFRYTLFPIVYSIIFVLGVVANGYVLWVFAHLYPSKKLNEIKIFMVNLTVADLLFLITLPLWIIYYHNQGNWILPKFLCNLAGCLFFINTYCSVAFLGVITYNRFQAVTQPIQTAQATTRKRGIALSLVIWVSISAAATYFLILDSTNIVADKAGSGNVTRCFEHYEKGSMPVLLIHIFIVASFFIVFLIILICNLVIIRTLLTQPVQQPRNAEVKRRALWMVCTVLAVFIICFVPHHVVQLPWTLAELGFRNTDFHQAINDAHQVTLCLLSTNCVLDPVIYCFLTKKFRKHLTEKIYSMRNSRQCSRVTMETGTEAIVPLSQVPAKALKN

SMILES	IC50 [1] [nM]	IC50 (PAF receptors) [nM]
COc1cc(C(=O)N2CCN(C(=O)c3cc(OC)c(OC)c(OC)c3)C(CCCc3ccc(C)cc3)C2)cc(OC)c1OC (centres unmarked) [Example 13, N,N'-bis-(3',4',5'-trimethoxybenzoyl)-2-n-(p-(methyl)phenylpropyl) piperazine]	350	140
CCCCCCCCCCCCCCCC1CN(C(=O)c2cc(OC)c(OC)c(OC)c2)CCN1C(=O)c1cc(OC)c(OC)c(OC)c1 (centres unmarked) [Example 5, N,N'-bis-(3',4',5'-trimethoxybenzoyl) 2-n-pentadecyl piperazine]	5800	6300
COc1cc(C(=O)N2CCN(C(=O)c3cc(OC)c(OC)c(OC)c3)C(CCc3ccccc3)C2)cc(OC)c1OC (centres unmarked) [Example 10, N,N'-bis-(3',4',5'-trimethoxybenzoyl)-2-n-(phenethyl) piperazine]	5400	4100
COc1ccc(CCC2CN(C(=O)c3cc(OC)c(OC)c(OC)c3)CCN2C(=O)c2cc(OC)c(OC)c(OC)c2)cc1 (centres unmarked) [Example 12, N,N'-bis-(3',4',5'-trimethoxybenzoyl)-2-n-(p-(methoxy)phenethyl) piperazine]	62	60
COc1cc(C(=O)N2CCN(C(=O)c3cc(OC)c(OC)c(OC)c3)C(CCC(C)(C)C)C2)cc(OC)c1OC (centres unmarked) [Example 2, N,N'-bis-(3',4',5'-trimethoxybenzoyl) 2-(3",3"-dimethyl) -butyl piperazine]	710	250
COc1cc(C(=O)N2CCN(C(=O)c3cc(OC)c(OC)c(OC)c3)C(C)C2)cc(OC)c1OC (centres unmarked) [Example 3, N,N'-bis-(3',4',5'-trimethoxybenzoyl) 2-methyl piperazine]	560	670
COc1cc(C(=O)N2CCN(C(=O)c3cc(OC)c(OC)c(OC)c3)C(Cc3ccccc3)C2)cc(OC)c1OC (centres unmarked) [Example 9, N,N'-bis-(3',4',5'-trimethoxybenzoyl)-2-n-(benzyl) piperazine]	410	730
COc1cc(CCC2CN(C(=O)c3cc(OC)c(OC)c(OC)c3)CCN2C(=O)c2cc(OC)c(OC)c(OC)c2)cc(OC)c1OC (centres unmarked) [Example 8, N,N'-bis-(3',4',5'-trimethoxybenzoyl)-2-n-(3,4,5-(trimethoxy)phenethyl) piperazine]	71	38
COc1cc(C(=O)N2CCN(C(=O)c3cc(OC)c(OC)c(OC)c3)C(CCC3CCCCC3)C2)cc(OC)c1OC (centres unmarked) [Example 7, N,N'-bis-(3',4',5'-trimethoxybenzoyl)-2-n-(cyclohexylethyl) piperazine]	430	740
COc1cc(C(=O)N2CCN(C(=O)c3cc(OC)c(OC)c(OC)c3)C(CCCc3ccccc3)C2)cc(OC)c1OC (centres unmarked) [Example 11, N,N'-bis-(3',4',5'-trimethoxybenzoyl)-2-n-(phenyl-n-propyl) piperazine]	11	31

More lines, in order of falling IC50 [1], values ahead:

IC50 [1] [nM]	IC50 (PAF receptors) [nM]	SMILES
2400	4700	CCCCCCCCCCCCCCCCCCCC1CN(C(=O)c2cc(OC)c(OC)c(OC)c2)CCN1C(=O)c1cc(OC)c(OC)c(OC)c1 (centres unmarked) [Example 6, N,N'-bis-(3',4',5'-trimethoxybenzoyl) 2-n-nonadecyl piperazine]
370	680	COc1cc(C(=O)N2CCN(C(=O)c3cc(OC)c(OC)c(OC)c3)C(CCc3cccc(Cl)c3Cl)C2)cc(OC)c1OC (centres unmarked) [Example 15, N,N'-bis-(3',4',5,-trimethoxybenzoyl)-2-n-(2,3-(dichloro)phenethyl) piperazine]
290	530	C=CCc1ccc(CCC2CN(C(=O)c3cc(OC)c(OC)c(OC)c3)CCN2C(=O)c2cc(OC)c(OC)c(OC)c2)cc1 (centres unmarked) [Example 16, N,N'-bis-(3',4',5'-trimethoxybenzoyl)-2-n-(p-(allyl)phenethyl) piperazine]
190	32	CCCCCC1CN(C(=O)c2cc(OC)c(OC)c(OC)c2)CCN1C(=O)c1cc(OC)c(OC)c(OC)c1 (centres unmarked) [Example 4, N,N'-bis-(3',4',5'-trimethoxybenzoyl) 2-n-pentyl piperazine]
170	450	COc1cc(C(=O)N2CCN(C(=O)c3cc(OC)c(OC)c(OC)c3)C(CCc3ccc(Cl)cc3)C2)cc(OC)c1OC (centres unmarked) [Example 14, N,N'-bis-(3',4',5'-trimethoxybenzoyl)-2-n-(p-(chloro)phenethyl) piperazine]
120	62	CCCCCCCCC1CN(C(=O)c2cc(OC)c(OC)c(OC)c2)CCN1C(=O)c1cc(OC)c(OC)c(OC)c1 (centres unmarked) [Example 1, N,N'-bis-(3',4',5'-trimethoxybenzoyl)-2-n-octyl piperazine]
